Common to all, as to assay type: functional
One assay deals with Malme-3M. The assay is described as follows: Growth inhibition of human MALME-3M cells after 48 hrs by SRB assay. Background: The SRB assay estimates cell density from bound dye.
In another assay the test system is SF-268. As to the kind of experiment: Growth inhibition of human SF268 cells after 48 hrs by SRB assay. Conditions: SF-268, 48 h.
For another assay, the system named is SR. The assay is described as follows: Growth inhibition of human SR cells after 48 hrs by SRB assay.
The next assay concerns COLO 205. The assay is described as follows: Growth inhibition of human COLO205 cells after 48 hrs by SRB assay. Conditions: COLO 205, 48 h.
For the next assay, the system named is SF-539. As to the kind of experiment: Growth inhibition of human SF539 cells after 48 hrs by SRB assay. The settings on record: SF-539, 48 h.
Another assay relates to SF-295. The assay is described as follows: Growth inhibition of human SF295 cells after 48 hrs by SRB assay. Conditions: SF-295, 48 h.
A further assay has as its system EKVX. As to the kind of experiment: Growth inhibition of human EKVX cells after 48 hrs by SRB assay.
The mark [1] stands for this setting: read-out: LC50 (the source's name).

One may read the GI50 as the concentration that inhibits growth by half. Higher therefore signals lower sensitivity of the cells. Usually LC50 stands for the concentration lethal to half of the exposed cells or organisms. Read a low LC50 as a more lethal substance. Consider `Cc1ccc(C2=Nc3c(N)ncnc3NC(c3ccc4c(c3)OCO4)C2)cc1` (racemic), for which the GI50 is 3.01 µM in the assay on Malme-3M; 4.06 µM with SF-268; 0.25 µM in the assay with SR; 3.47 µM in the assay on COLO 205; 4.98 µM in the assay on SF-539; 4.98 µM in the assay on SF-295. This compound also gave a concentration for 50% growth inhibition (GI50) with EKVX of 16.2 µM. In addition, the CC50 was greater than 100 µM in the assay on Malme-3M (setting [1]), greater than 100 µM in the assay with COLO 205 (setting [1]), 69.9 µM in the assay with SF-539 (setting [1]) and greater than 100 µM in the assay with EKVX (setting [1]). In the assay with SF-268, the LC50 (50% lethal concentration) turned out to be 52.2 µM. This compound also showed an LC50 (concentration killing 50% of cells) in the assay on SR greater than 100 µM. The LC50 in the assay on SF-295 is greater than 100 µM.

The values above are taken from ChEMBL document CHEMBL1156714, “Microwave induced synthesis of novel 8,9-dihydro-7H-pyrimido[4,5-b][1,4]diazepines as potential antitumor agents” (2008).
